The values that follow come from patent US12427160B2, “Use of cannabinoids in the treatment of epilepsy” (Jazz Pharmaceuticals Research UK Limited, priority 2014, dated 2025).

The subject of data set [1] is children and young adults with severe, childhood onset treatment-resistant epilepsy (TRE). Kind of data set: Expanded access compassionate use program: 50% responders after 12 weeks of CBD added to baseline AED. It is filed as in vivo, human. Conditions: 12 weeks of treatment.
Data set [2] in a line: Solubility of the drug substance in water. It is filed as physicochemical. The source says: Sesame oil was selected as an excipient to solubilize the drug substance.
In data set [3] the test system is seizures. The note with it: 200 mg/day of pure CBD, four adult patients; cited from earlier work.
The subject of the next data set is generalized epilepsy. The note with it: eight adult patients with generalized epilepsy; cited from earlier work.
The test system of another data set is seizures in mice. The note with it: after pro-convulsant drugs or an electric current; cited from earlier work.
In data set [4] the test system is seizures. The note with it: 200 mg/day of pure CBD, open label, twelve institutionalized adult patients; cited from earlier work.
The subject of another data set is Lennox-Gastaut syndrome. The note with it: CBD in an oily solution, a child with Lennox-Gastaut syndrome; cited from earlier work.
For data set [5] the following is noted: in vivo; cited from earlier work.

`C=C(C)[C@@H]1CCC(C)=C[C@H]1c1c(O)cc(CCCCC)cc1O` [CBD, Cannabidiol]: in data set [1] (absence seizures (n = 28)), the “<50% reduction in seizures, proportion of patients, absence seizures” value is 36% and the “>50% reduction in seizures, proportion of patients, absence seizures” value was 64%. In data set [1] (clonic seizures (n = 8)), the “<50% reduction in seizures, proportion of patients, clonic seizures” value was 50% and the “>50% reduction in seizures, proportion of patients, clonic seizures” value worked out at 50%. In data set [1] (myoclonic seizures (n = 30)), the “<50% reduction in seizures, proportion of patients, myoclonic seizures” value is on record as 57% and the “>50% reduction in seizures, proportion of patients, myoclonic seizures” value is reported as 43%. In data set [1] (tonic seizures (n = 45)), the “<50% reduction in seizures, proportion of patients, tonic seizures” value worked out at 51% and the “>50% reduction in seizures, proportion of patients, tonic seizures” value came to 49%. Moreover, in data set [1] (tonic-clonic seizures (n = 65)), the “<50% reduction in seizures, proportion of patients, tonic-clonic seizures” value is given as 37% and the “>50% reduction in seizures, proportion of patients, tonic-clonic seizures” value amounted to 43%. The “<50% reduction in seizures, proportion of patients, total seizures” value in data set [1] (total seizures (n = 137)) was 54% (n = 74). The solubility in water entry in data set [2] is “insoluble in water”. Moreover, in the data set on seizures [3], the “seizure freedom / seizure frequency” value was “two of the four patients became seizure free”. Besides, the reduction of seizures entry in the data set with generalized epilepsy is “marked reduction of seizures in 4 of the patients”. The prevention of seizures entry with seizures in mice is listed as “able to prevent seizures in mice”. Also, the control of seizures result in the data set with seizures [4] is “ineffective in controlling seizures”. Moreover, in the data set with Lennox-Gastaut syndrome, the seizure frequency result was “improvement in seizure frequency”.
In the case of `CCCCCc1cc(O)c2c(c1)OC(C)(C)[C@@H]1CCC(C)=C[C@@H]21` [THC, Tetrahydrocannabinol], the pro-convulsant effect result in data set [5] was “pro-convulsant”.
